# Test results from patent US20210379062A1, “The use of a H3R inverse agonist for the treatment of excessive daytime sleepiness associated with parkinson's disease (PD)” (Novartis AG, priority 2018, published 2021).
# Where two headings read alike, the source gives them in different places.
# Assays:
# [1] = cited from earlier work
# Rat brain and plasma PK = type: in vivo; settings: 10 mg/kg oral, rats
# H3 receptor = assay: Ex vivo receptor occupancy assay in rat frontal cortex; settings: rats; for dose that resulted in H3 receptor occupancy of 80-90%: oral dosing, 1 h after compound administration
# Experimental: Male Sprague-Dawley rats (from Shanghai SLAC Laboratory Animal CO. LTD) at the age of 5-6 weeks were used. The animals were housed in a temperature and humidity-controlled environment on a 12 h light/dark cycle with food and water available ad libitum. All the procedures were approved by Institutional Animal Care and Use Committee of Chempartner Co., LTD (IACUC Protocol NO: A998HL0076).
# Compounds were dissolved in 50 mM citrate buffer (pH 3.5), or saline. The compound was then diluted stepwise to the final concentration with vehicle. Animals were dosed by p.o. or i.v. in 1 ml/kg bodyweight.
# At each time point, rats were decapitated immediately. Intact brain was removed, immersed and washed in pre-cooled saline. After drying with filter paper, frontal cortex was dissected with a double-blade with an about 30° angle starting at ⅓ of anterior rat brain (weight of most brain tissues around 70±10 mg). Brain tissue was transferred into a pre-weighed tube with homogenizer beads. The tubes were weighed again and the tissue net weight was recorded. Tissue sampling was done on ice with intervals of 1 min. Then, 50 mM HEPES (Gibco® by Life Technologies) buffer were added (equivalent to 3.75 μl/mg tissue weight) followed by homogenization (frequency 30/sec for 20 sec, TissueLyser, Quiagen).
# The crude homogenate samples of rat frontal cortex were used to measure H3 receptor binding as described above with [^3H]—N-α-methylhistamine as radioligand. The protein concentration of each sample was determined by Pierce BCA Protein Assay Kit (Thermo).
# The cortical homogenate was added to a 96-well plate containing [^3H]—N-α-methylhistamine (0.1 nM), in a volume of 0.2 ml (final protein concentration 4 μg/μl), incubated at 28° C. for 15 min and the reaction was stopped by rapid filtration using a filtration plate (Millipore multiscreen GF/B plate). The filters were washed three times with ice-cold wash buffer (50 mM Tris, pH 7.5) and 250 μl of Microscint-40 were added followed by determination of the bound radiolabel with a Wallac Microbeta Trilux 2450 (Perkin Elmer). Nonspecific binding was determined in the presence of 10 μM thioperamide. Each data point was obtained from a total of at least four animals. The inhibition of specific [^3H]NAMH binding, calculated as relative to vehicle-treated samples, was determined to provide an indication of receptor occupancy by the compound. The dose-dependent % RO and time course were analyzed using GraphPad Prism. The dose response was fit using GraphPad Prism: log(inhibitor) vs. response with variable slope.
# [2] = test system: tele-methylhistamine (tMeHA); assay: Ex vivo PD determination: brain tele-methylhistamine time course in rats; set-up: species or system rat; settings: 10 mg/kg oral; for effect on tMeHA levels: brain
# Experimental: Male Sprague-Dawley rats (Shanghai SLAC Laboratory Animal Co. LTD) of 6-7 weeks age were used. Animals were housed in a temperature and humidity-controlled environment on a 12 h light/dark. All animals had free access to food and water. All procedures were approved by Institutional Animal Care and Use Committee of ChemPartner Co., LTD (IACUC Protocol NO: A998HL0002).
# For bioanalysis of brain tissue tele-methylhistamine samples were further processed.
# One aliquot of the stock solution was diluted using ethanol/phosphate buffer pH 7.4 (85:15, v/v) to achieve a series working solutions. The brain homogenate was centrifuged at 12000 rpm for 5 min at 4° C. Then 10 μL supernatant of the brain homogenate sample was added to 60 μL internal standard (d3-1-methyl-histamine, 20 ng/mL). The mixture was vortexed for 2 min and centrifuged at 12000 rpm for 5 min at 4° C. Finally, 60 μL supernatant was added and 3 μL supernatant was injected into LC-MS/MS for analysis (Agilent 6410, triple quadrupole mass spectrometer, Mobile phase A: H2O— 0.1% NH3, Mobile phase B: methanol— 0.1% NH3, Column: Ultimate XB-C18 (2.1×50 mm, 5 μm, Flow rate: 0.45 mL/min, temperature: 40° C.).
# [3] = molecular target: T1, Human histamine H3 receptor (Homo sapiens, UniProt Q9Y5N1); assay: Radioligand binding assay with [3H]-N-α-methylhistamine; settings: human recombinant H3R, 1.0 nM [3H]-N-α-methylhistamine, Cheng-Prusoff
# T1 construct: purchased PerkinElmer
# Experimental: Human histamine H3 receptor membrane (PerkinElmer) were incubated with 1.0 nM [^3H]—N-α-methylhistamine (PerkinElmer) in the presence or absence of increasing concentrations of ligands for H3 receptor competition binding. The binding incubations were in a final volume of 0.1 ml buffer (50 mMTris pH 7.5, 5 mM MgCl2) at 28° C. for 120 minutes. Thioperamide (10 μM) was used to define non-specific binding.
# All binding reactions were terminated by transferring 70 μl binding reaction from the reaction plate into filtration plates (Zeba 96-well Spin Desalting Plates, Thermo Scientific), followed by centrifugation at 1000 g for 2 min to collect the protein with bound radioligand. 200 μl of microscint-40 were added to determine the bound radiolabel by a Wallac Microbeta Trilux 2450 (Perkin Elmer). For all radioligand competition binding assays, IC50 values and Hill slopes were determined by GraphPad Prism: log(inhibitor) vs. response with variable slope. Ki was calculated using the equation in Biochem. Pharmacol. 1973. 22 (23), 3099-3108, from Cheng and Prusoff: Ki=IC50/{1+([radioligand]/Kd)}.
# [4] = 100-200 mg/day, two weeks treatment, excessive sleepiness associated with PD
# T1 sequence (Q9Y5N1 whole entry): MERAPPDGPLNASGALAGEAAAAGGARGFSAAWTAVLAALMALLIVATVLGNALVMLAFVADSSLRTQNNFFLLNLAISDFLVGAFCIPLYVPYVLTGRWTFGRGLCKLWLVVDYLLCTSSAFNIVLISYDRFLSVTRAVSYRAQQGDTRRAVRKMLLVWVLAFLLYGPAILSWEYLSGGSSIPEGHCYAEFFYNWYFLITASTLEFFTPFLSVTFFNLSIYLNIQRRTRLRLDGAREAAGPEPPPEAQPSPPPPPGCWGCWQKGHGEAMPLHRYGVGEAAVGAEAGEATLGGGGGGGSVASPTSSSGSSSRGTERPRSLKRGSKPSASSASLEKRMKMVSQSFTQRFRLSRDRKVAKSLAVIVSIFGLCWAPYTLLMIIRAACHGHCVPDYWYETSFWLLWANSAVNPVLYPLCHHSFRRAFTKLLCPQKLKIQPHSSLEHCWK
Compound,"Epworth Sleeping Scale scores [1, 4]","sleep latency in the Maintenance of Wakefulness Test [1, 4]",Epworth Sleeping Scale scores ([1]; 200-400 mg/day for four weeks),total brain exposure (Rat brain and plasma PK),"initial RO (H3 receptor; 300 mg/kg oral, 0.5 h) [%]","RO (H3 receptor; 300 mg/kg oral, 8 h after compound administration) [%]",dose that resulted in H3 receptor occupancy of 80-90% (H3 receptor) [mg/kg],effect on tMeHA levels [2],Ki [3] [nM],"rate of exposure-decline in brain, relative to Compound (I) (Rat brain and plasma PK)",brain exposure (Rat brain and plasma PK; 8 h time point),"RO (H3 receptor; 10 mg/kg oral, 7 h) [%]","initial RO (H3 receptor; 10 mg/kg oral, time not given) [%]",time at which tMeHA increase is first observed [2] [h],tMeHA level at 8 h ([2]; 8 h)
"NC(=O)C[S+]([O-])C(c1ccccc1)c1ccccc1 (stereo not drawn) [modafinil, 2-(benzhydrylsulfinyl)acetamide]",improved,but not sleep latency,no improvement,–,–,–,–,–,–,–,–,–,–,–,–
"Clc1ccc(CCCOCCCN2CCCCC2)cc1 [pitolisant, reference compound]",–,–,–,very low,~90,40,300,no increase,–,–,–,–,–,–,–
"O=C(c1ccc(CN2CCOCC2)cc1)N1CCN(C2CC2)CC1 [bavisant, reference compound]",–,–,–,very high,–,–,10,delayed increase,102,much slower,high,37,90,1,stayed elevated
